Experimental data taken from patent US10537579B2, “Rejection reaction suppressant” (JUNTENDO EDUCATIONAL FOUNDATION, priority 2017, dated 2020).

Columns and labels:
Type in all cases: in vivo
[1] = test system: transplanted human cornea; assay: Effects on transplanted human cornea (case, angiogenesis in corneal graft); conditions: after 3 weeks of ocular instillation
Description: Corneal transplantation was performed in a case of corneal perforation resulting from corneal herpes (person), and as a result, severe hyperemia was observed one month after surgery, and vascularization was observed also in a corneal graft. Peripheral anterior synechia was observed, and secondary glaucoma was observed, and therefore GLANATEC ophthalmic solution 0.4% was prescribed.

[2] = test system: transplanted mouse corneas; assay: Mouse corneal transplant model: angiogenesis score, opacity score and graft survival by slit lamp microscope; conditions: Group R3: ocular instillation three times daily
Description: (§1) Mouse corneal transplant models were prepared in accordance with a method described in a document (J Biol Methods 2015 2(3); e 27, hereinafter referred to as Document A) and used in an experiment. More specifically, allograft corneal transplantation was performed between 6 to 8-week-old donor male C57BL/6 mice and 6 to 8-week-old host male Balb/c mice.
(§2) The mice that had received corneal transplantation were divided into three groups (5 mice per group): ocular instillation of PBS twice daily (Group P: control group); ocular instillation of ripasudil twice daily (Group R2); and ocular instillation of ripasudil three times daily (Group R3).
(§3) The amount of PBS or ripasudil instilled into one eye per administration was 0.1 μL, and GLANATEC ophthalmic solution 0.4% was used as ripasudil.
(§4) After transplantation, the ocular instillation was performed every day until day 56, during which the angiogenesis score and opacity score (each of which was determined by a method described in. Document A) and the survival time of corneal grafts were evaluated with a slit lamp microscope every 7 days. On day 56 that was the final day of the experiment, in addition to the above evaluations, the expression levels of vascular endothelial cells (CD31), vascular endothelial cell growth factor (VEGF-A), and lymph vessels (Lyve-1) in the corneas were measured by real-time-PCR.

[3] = test system: mouse cervical lymph node cells; assay: Mouse corneal transplant model: cervical lymph node cells by flow cytometry (FACS) on day 14; conditions: day 14 after transplantation
Description: (§5) Mouse corneal transplant models were prepared (surgery), divided into groups (Group P, Group R2, and Group R3), and treated (ocular instillation) in the same manner as in Example 1. On day 14 after transplantation, cervical lymph node cells were collected, and CD4^+ T cells, the expression levels of inflammatory cytokines IFNγ and IL-17, CD4^+CD25^+Foxp3^+ regulatory T cells (Tregs) involved in immune tolerance, […], and the expression level of Foxp3 (Mean Fluorescein Intensity, MFI) were measured by flow cytometry (FACS). Further, on day 14 after transplantation, the expression levels of foxp3, IL-10, and TGFβ1 in the corneas were also measured by a real-time PCR (qPCR).

[4] = test system: foxp3, IL-10 and TGFβ1 in transplanted mouse corneas; assay: Mouse corneal transplant model: expression levels in the corneas by real-time PCR (qPCR) on day 14; conditions: day 14 after corneal transplantation
Description: as §5

[5] = test system: CD31, VEGF-A and Lyve-1 in transplanted mouse corneas; assay: Mouse corneal transplant model: expression levels in the corneas by real-time PCR on day 56; conditions: Group R3: three times daily, vs Group P, p<0.001
Description: as §1, §2, §3, §4

[6] = until day 56, vs Group P (PBS), p<0.05

C[C@H]1CNCCCN1S(=O)(=O)c1cccc2cncc(F)c12.Cl.O.O [ripasudil, 4-fluoro-5-{[(2S)-2-methyl-1,4-diazepan-1-yl]sulfonyl}isoquinoline monohydrochloride dihydrate]
numerical analysis of new blood vessels with Image J (FIG. 10) [1]: effect of suppressing angiogenesis | transparency of transplanted cornea (photographs, FIG. 1) [2]: maintained until day 56 | angiogenesis score [2, 6]: significantly lower | opacity score [2, 6]: significantly lower | survival time of corneal grafts [2, 6]: significantly prolonged | Foxp3 expression level (MFI) in cervical lymph node cells ([3]; Group R2: twice daily): significantly increased | CD4+CD25+Foxp3+ regulatory T cells (Tregs) in cervical lymph node cells ([3]; Group R3: three times daily): significantly increased | CD4+CD25+Foxp3− regulatory T cells (exTregs) in cervical lymph node cells ([3]; Group R3: three times daily): significantly reduced | Foxp3 expression level (MFI) in cervical lymph node cells ([3]; Group R3: three times daily): significantly increased | inflammatory cytokine IFN-γ in cervical lymph node cells ([3]; Group R3: three times daily): significant reduction | expression of foxp3 in the corneas ([4]; Group R2: twice daily): significantly increased | expression of IL-10 in the corneas ([4]; Group R3: three times daily): significantly increased | expression of TGFβ1 in the corneas ([4]; Group R3: three times daily): significantly increased | expression of foxp3 in the corneas ([4]; Group R3: three times daily): significantly increased | CD31 expression level in the corneas [5]: significantly lower | Lyve-1 expression level in the corneas [5]: significantly lower | VEGF-A expression level in the corneas [5]: significantly lower
